Measured values from patent US20250376461A1, “INDAZOLE DERIVATIVES FOR TREATING TRPM3-MEDIATED DISORDERS” (Katholieke Universiteit Leuven, priority 2022, published 2025).

Biological target: T1, mouse TRPM3α2 (mTRPM3) ion channel (Mus musculus, UniProt J9SQF3)
T1 construct: expressed in transfected cells; host or cells: flip-in HEK293
Assay: TRPM3 ion channel driven Ca2+ uptake, Fluo-4 AM assay, mTRPM3alpha2 overexpressing flip-in HEK293 cells stimulated with pregnenolone sulfate (50 μM)
Assay type: cell-based
Settings: mTRPM3 overexpressing HEK293 cells stimulated with pregnenolone sulfate (50 μM), activity ranges A, B, C
Outline: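 Flip-in HEK293 cells overexpressing mTRPM3α2, loaded with Fluo-4 AM, added at ±2000 cells/well to plates holding compound plus 50 μM pregnenolone sulfate in Ca2+-containing Krebs buffer. Fluorescence (ex 485/em 535 nm) read immediately. Percent inhibition normalised between vehicle and positive-control inhibitor; IC50 derived.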

T1 sequence (J9SQF3 1-1709 isoform J9SQF3-12): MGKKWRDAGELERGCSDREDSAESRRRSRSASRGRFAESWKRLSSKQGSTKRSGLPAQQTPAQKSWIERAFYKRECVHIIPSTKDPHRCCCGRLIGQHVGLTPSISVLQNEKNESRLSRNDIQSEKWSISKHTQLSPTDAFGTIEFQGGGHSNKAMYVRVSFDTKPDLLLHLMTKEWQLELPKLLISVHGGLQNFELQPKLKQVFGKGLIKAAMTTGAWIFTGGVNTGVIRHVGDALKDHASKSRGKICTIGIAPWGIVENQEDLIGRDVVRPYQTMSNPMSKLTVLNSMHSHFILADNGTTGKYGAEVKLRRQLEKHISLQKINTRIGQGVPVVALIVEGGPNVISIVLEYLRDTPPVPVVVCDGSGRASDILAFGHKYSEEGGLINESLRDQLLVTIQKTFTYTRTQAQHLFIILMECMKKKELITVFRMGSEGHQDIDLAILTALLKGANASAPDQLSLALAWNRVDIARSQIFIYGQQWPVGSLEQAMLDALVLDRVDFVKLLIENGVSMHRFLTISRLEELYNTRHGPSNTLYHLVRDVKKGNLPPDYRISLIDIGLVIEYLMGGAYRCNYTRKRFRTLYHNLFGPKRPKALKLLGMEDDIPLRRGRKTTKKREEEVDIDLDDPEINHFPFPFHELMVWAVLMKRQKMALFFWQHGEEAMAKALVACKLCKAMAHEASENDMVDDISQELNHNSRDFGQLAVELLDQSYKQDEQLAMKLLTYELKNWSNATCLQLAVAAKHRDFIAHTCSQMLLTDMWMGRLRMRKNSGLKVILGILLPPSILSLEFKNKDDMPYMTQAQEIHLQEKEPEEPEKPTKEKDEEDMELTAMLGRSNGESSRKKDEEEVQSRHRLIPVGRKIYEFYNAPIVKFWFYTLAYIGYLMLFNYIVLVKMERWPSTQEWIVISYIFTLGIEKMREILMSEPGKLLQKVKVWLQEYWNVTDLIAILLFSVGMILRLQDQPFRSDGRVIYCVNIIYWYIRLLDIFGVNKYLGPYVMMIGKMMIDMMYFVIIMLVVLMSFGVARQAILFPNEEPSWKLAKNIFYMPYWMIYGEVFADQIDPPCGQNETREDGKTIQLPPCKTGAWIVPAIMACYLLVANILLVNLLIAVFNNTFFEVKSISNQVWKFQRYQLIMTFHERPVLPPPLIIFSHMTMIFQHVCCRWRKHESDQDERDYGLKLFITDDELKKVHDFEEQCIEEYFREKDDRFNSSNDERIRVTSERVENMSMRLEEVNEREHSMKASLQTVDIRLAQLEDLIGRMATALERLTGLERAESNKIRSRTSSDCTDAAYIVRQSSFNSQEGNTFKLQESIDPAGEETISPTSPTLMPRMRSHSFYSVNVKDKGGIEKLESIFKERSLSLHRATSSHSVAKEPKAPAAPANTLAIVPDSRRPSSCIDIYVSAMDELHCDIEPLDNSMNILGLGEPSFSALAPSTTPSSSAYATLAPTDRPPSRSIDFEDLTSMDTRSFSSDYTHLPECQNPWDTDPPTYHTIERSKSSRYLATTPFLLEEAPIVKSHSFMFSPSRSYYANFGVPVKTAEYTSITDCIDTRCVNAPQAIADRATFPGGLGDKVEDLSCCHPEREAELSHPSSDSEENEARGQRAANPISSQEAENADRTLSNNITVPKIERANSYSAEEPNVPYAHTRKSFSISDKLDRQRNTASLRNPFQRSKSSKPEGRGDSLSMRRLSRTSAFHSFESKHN

Row | Structure (SMILES) | IC50 [µM]
1 | Cn1nc2ccc(OCc3cccnc3C(F)(F)F)cc2c1C(=O)NC1(CO)CCC1 [Cpd 028, N-[1-(hydroxymethyl)cyclobutyl]-2-methyl-5-{[2-(trifluoromethyl)pyridin-3-yl]methoxy}-2H-indazole-3-carboxamide] | 1 to 20
2 | Cn1nc2ccc(OCc3cccnc3C(F)(F)F)cc2c1C(=O)NC1(CO)CCOCC1 [Cpd 029, N-[4-(hydroxymethyl)oxan-4-yl]-2-methyl-5-{[2-(trifluoromethyl)pyridin-3-yl]methoxy}-2H-indazole-3-carboxamide] | 1 to 20
3 | Cn1nccc1COc1ccc2nn(C)c(C(=O)NC3(C(N)=O)COC3)c2c1 [Cpd 030, N-(3-carbamoyloxetan-3-yl)-2-methyl-5-[(1-methyl-1H-pyrazol-5-yl)methoxy]-2H-indazole-3-carboxamide] | > 20
4 | Cc1ncsc1COc1ccc2nn(C)c(C(=O)NC3(C(N)=O)COC3)c2c1 [Cpd 031, N-(3-carbamoyloxetan-3-yl)-2-methyl-5-[(4-methyl-1,3-thiazol-5-yl)methoxy]-2H-indazole-3-carboxamide] | 1 to 20
5 | Cc1ncsc1COc1ccc2nn(C)c(C(=O)NC3CN(C)CC3(F)F)c2c1 (stereo not drawn) [Cpd 032, N-(4,4-difluoro-1-methylpyrrolidin-3-yl)-2-methyl-5-[(4-methyl-1,3-thiazol-5-yl)methoxy]-2H-indazole-3-carboxamide] | 1 to 20
6 | Cn1nc2ccc(OCc3ccccc3)cc2c1C(=O)NC1(C(N)=O)CCC1 [Cpd 033, 5-(benzyloxy)-N-(1-carbamoylcyclobutyl)-2-methyl-2H-indazole-3-carboxamide] | 1 to 20
7 | CN1CC(NC(=O)c2c3cc(OCc4ccccc4)ccc3nn2C)C(F)(F)C1 (stereo not drawn) [Cpd 034, 5-(benzyloxy)-N-(4,4-difluoro-1-methylpyrrolidin-3-yl)-2-methyl-2H-indazole-3-carboxamide] | 1 to 20
8 | Cn1nccc1COc1ccc2nn(C)c(C(=O)NCc3cccc(O)n3)c2c1 [Cpd 035, N-[(6-hydroxypyridin-2-yl)methyl]-2-methyl-5-[(1-methyl-1H-pyrazol-5-yl)methoxy]-2H-indazole-3-carboxamide] | 1 to 20
9 | Cn1nc2ccc(OCc3cccnc3C(F)(F)F)cc2c1C(=O)NCc1cccc(O)n1 [Cpd 036, N-[(6-hydroxypyridin-2-yl)methyl]-2-methyl-5-{[2-(trifluoromethyl)pyridin-3-yl]methoxy}-2H-indazole-3-carboxamide] | 1 to 20
10 | Cc1ncsc1COc1ccc2nn(C)c(C(=O)NC3CCN(CCO)C3=O)c2c1 (stereo not drawn) [Cpd 037, N-[1-(2-hydroxyethyl)-2-oxopyrrolidin-3-yl]-2-methyl-5-[(4-methyl-1,3-thiazol-5-yl)methoxy]-2H-indazole-3-carboxamide] | > 20
11 | Cn1nc2ccc(OCc3ccccc3)cc2c1C(=O)NC1CCN(CCO)C1=O (stereo not drawn) [Cpd 038, 5-(benzyloxy)-N-[1-(2-hydroxyethyl)-2-oxopyrrolidin-3-yl]-2-methyl-2H-indazole-3-carboxamide] | 1 to 20
12 | Cn1nccc1COc1ccc2nn(C)c(C(=O)NC3CCN(CCO)C3=O)c2c1 (stereo not drawn) [Cpd 039, N-[1-(2-hydroxyethyl)-2-oxopyrrolidin-3-yl]-2-methyl-5-[(1-methyl-1H-pyrazol-5-yl)methoxy]-2H-indazole-3-carboxamide] | > 20
13 | CN1CCC(NC(=O)c2c3cc(OCc4cccnc4C(F)(F)F)ccc3nn2C)C1 (stereo not drawn) [Cpd 040, 2-methyl-N-(1-methylpyrrolidin-3-yl)-5-{[2-(trifluoromethyl)pyridin-3-yl]methoxy}-2H-indazole-3-carboxamide] | 1 to 20
14 | Cn1nc2ccc(OCc3ccccc3)cc2c1C(=O)NC1(C(N)=O)COC1 [Cpd 041, 5-(benzyloxy)-N-(3-carbamoyloxetan-3-yl)-2-methyl-2H-indazole-3-carboxamide] | 1 to 20
15 | CN(C)C1(CNC(=O)c2c3cc(OCc4cccnc4C(F)(F)F)ccc3nn2C)CCC1 [Cpd 042, N-{[1-(dimethylamino)cyclobutyl]methyl}-2-methyl-5-{[2-(trifluoromethyl)pyridin-3-yl]methoxy}-2H-indazole-3-carboxamide] | 1 to 20
